Test results taken from the supplement of paper PMC8671470.
Counter-ions that a name gives are not always drawn.

Tests used:
Conditions in all cases: 72 h
[1] = test system: HL-60; test: cell viability (% survival relative to DMSO control); higher = less cytotoxic
Method in brief: (§1)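 In 384-well plates, the full library was rescreened in duplicate on HL-60 cells in RPMI 1640 with 10% FBS, at 1–10,000 nM in five tenfold concentrations, for 72 h at 37 °C, 5% CO2. Each run also held DMSO or 100 nM of one of three metabolic inhibitors. Viability was measured by CellTiter-Glo and normalised to DMSO wells and to wells with proteasome inhibitor, present at 10 μM. Any area under the curve comes from four-parameter log-logistic fitting with drc and PharmacoGx.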

[2] = test system: HL-60; test: area under dose-response curve (viability, 1 nM-10 uM) (fraction (0-1)); higher = more sensitive
Method in brief: as §1

[3] = test system: myeloid leukemia patient primary cells Pat.3; test: cell viability (% survival relative to DMSO control); higher = less cytotoxic
Method in brief: (§2)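 Mononuclear cells from patients with AML or CML were thawed, purified on Ficoll and placed in RPMI 1640 with 10% FBS at 10,000 cells/well on 384-well plates. The plates came pre-printed with 70 compounds at five tenfold concentrations spanning 1–10,000 nM, in duplicate, and cells were exposed for 72 h. CellTiter-Glo gave viability, scaled between DMSO wells and wells with 10 μM proteasome inhibitor. Where reported, area under the curve was obtained from log-logistic fits with four parameters using the drc and PharmacoGx R packages.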

[4] = test system: myeloid leukemia patient primary cells Pat.13; test: as above
Method in brief: as §2

[5] = test system: myeloid leukemia patient primary cells Pat.8; test: as above
Method in brief: as §2

[6] = test system: myeloid leukemia patient primary cells Pat.5; test: as above
Method in brief: as §2

[7] = test system: myeloid leukemia patient primary cells Pat.7; test: as above
Method in brief: as §2

[8] = test system: myeloid leukemia patient primary cells Pat.9; test: as above
Method in brief: as §2

[9] = test system: myeloid leukemia patient primary cells Pat.15; test: area under dose-response curve (viability, 1 nM-10 uM) (fraction (0-1)); higher = more sensitive
Description: (§3)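 AUC (0–1, higher = more sensitive) of the 5-point dose–response (1 nM–10 µM, 72 h, CellTiter-Glo) in primary AML/CML patient mononuclear cells. 0.030103 is the floor for inactive compounds.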

[10] = test system: myeloid leukemia patient primary cells Pat.4; test: as above
Description: as §3

[11] = test system: myeloid leukemia patient primary cells Pat.13; test: as above
Description: as §3

[12] = test system: myeloid leukemia patient primary cells Pat.8; test: as above
Description: as §3

[13] = test system: myeloid leukemia patient primary cells Pat.5; test: as above
Description: as §3

[14] = test system: myeloid leukemia patient primary cells Pat.1; test: as above
Description: as §3

[15] = test system: myeloid leukemia patient primary cells Pat.6; test: as above
Description: as §3

[16] = test system: myeloid leukemia patient primary cells Pat.14; test: as above
Description: as §3

[17] = test system: myeloid leukemia patient primary cells Pat.10; test: as above
Description: as §3

[18] = test system: myeloid leukemia patient primary cells Pat.12; test: as above
Description: as §3

[19] = test system: myeloid leukemia patient primary cells Pat.7; test: as above
Description: as §3

[20] = test system: myeloid leukemia patient primary cells Pat.9; test: as above
Description: as §3

[21] = test system: myeloid leukemia patient primary cells Pat.11; test: as above
Description: as §3

[22] = test system: myeloid leukemia patient primary cells Pat.2; test: as above
Description: as §3

Fc1ccc(CNc2ncnc3ccc(F)cc23)cc1 [Spautin 1]
cell viability [%], [1]
Conditions	0.001 µM	0.01 µM	0.1 µM	1 µM	10 µM
co-treatment: AZD3965 100 nM	78.7	99.98	101	103	71.3
co-treatment: DMSO vehicle	98.11	97.89	109	96.7	78.31
co-treatment: GSK2194069 100 nM	91.31	100	104	89.5	58
co-treatment: pictilisib 100 nM	100	96.8	108	98.7	80.4

Conditions	area under dose-response curve, co-treatment: AZD3965 100 nM	area under dose-response curve, co-treatment: DMSO vehicle	area under dose-response curve, co-treatment: GSK2194069 100 nM	area under dose-response curve, co-treatment: pictilisib 100 nM	cell viability, 1 nM [%]	cell viability, 10 nM [%]	cell viability, 100 nM [%]	cell viability, 1000 nM [%]	cell viability, 10000 nM [%]
[2]	< 0.0301	0.0409	0.0623	0.0324	–	–	–	–	–
[3]	–	–	–	–	63.4	49.7	> 100	33.1	69.9
[4]	–	–	–	–	97.7	78.3	89.4	75.7	34.9
[5]	–	–	–	–	93.5	82.1	85.6	80.7	51.1
[6]	–	–	–	–	84.9	17	78.9	25.9	2.01
[7]	–	–	–	–	74.6	70.9	> 100	58.8	30.3
[8]	–	–	–	–	67.2	7.92	65.9	12.7	5.45

Conditions	area under dose-response curve
[9]	0.12
[10]	0.0735
[11]	0.111
[12]	0.0661
[13]	0.326
[14]	0.0783
[15]	0.0755
[16]	0.141
[17]	0.0351
[18]	< 0.0301
[19]	0.154
[20]	0.762

CC(C)(Cc1ccccc1)NCC(O)c1ccc(O)c(NS(C)(=O)=O)c1 (stereo not given) [Zinterol hydrochloride]
cell viability [%], [1]
Conditions	0.001 µM	0.01 µM	0.1 µM	1 µM	10 µM
co-treatment: AZD3965 100 nM	99.4	83.1	101	93.8	95.4
co-treatment: DMSO vehicle	99.8	91.6	99.8	102	95.5
co-treatment: GSK2194069 100 nM	97.9	100	95.1	101	94.64
co-treatment: pictilisib 100 nM	85.5	91.4	86.6	90.4	72.6

cell viability [%]
Conditions	[3]	[4]	[5]	[6]	[7]	[8]
1 nM	84.7	96.7	88.5	17	54.3	79.2
10 nM	> 100	99.8	96.4	> 100	> 100	79.5
100 nM	93.4	92.6	> 100	73	76.6	67.4
1000 nM	90.2	> 100	85.3	99.9	> 100	74.7
10000 nM	87.3	> 100	85.5	93.9	> 100	87.2

Conditions	area under dose-response curve
[9]	< 0.0301
[10]	< 0.0301
[11]	< 0.0301
[12]	< 0.0301
[13]	< 0.0301
[14]	< 0.0301
[15]	< 0.0301
[16]	< 0.0301
[17]	< 0.0301
[18]	< 0.0301
[19]	< 0.0301
[20]	< 0.0301
[21]	< 0.0301
[22]	< 0.0301
